Test results reported in US20080262228A1, “Metabolites of 5-fluoro-8- quinoline and methods of preparation and uses thereof” (Wyeth, priority 2006, published 2008).
Several values for one entry are separate records, joined by “and”; a condition that tells them apart may be missing. Equal entries are not always repeated. Marks after values point to notes of the source that are not given here.

Assay: In vivo metabolism of [14C]COMPOUND I in Sprague-Dawley rats, single oral 5 mg/kg dose
Set-up: species or system rat
Settings: 5 mg/kg oral
Method: Dose preparation, animal dosing, and specimen collection were performed at Wyeth Research, Collegeville, Pa. The vehicle contained 2% (w/v) polysorbate 80, NF and 0.5% (w/v) methylcellulose (4000 cps) in water. [^14C]COMPOUND I trisuccinate salt (36.6 mg) and non-labeled COMPOUND I trisuccinate salt (26.7 mg) were dissolved in 1 mL of ethanol and suspended in 35 mL of the vehicle with stirring. The target [^14C]COMPOUND I concentration was approximately 1 mg/mL as free base and 70 μCi/mL with a target specific activity of 70 μCi/mg. Three pre- and post-dose aliquots (100 μL) were taken for the determination of radiochemical purity, drug and radioactivity concentrations and specific activity (see below).
Male rats weighing from 323 to 354 g and female rats weighing from 270 to 317 g at the time of dosing were purchased from Charles River Laboratories (Wilmington, Mass.). Non-fasted rats were given a single 5 mg/kg (˜350 μCi/kg) dose of [^14C]COMPOUND I at a volume of 5.0 mL/kg via intragastric gavage. Three rats were dosed for each time point. Animals were provided Purina rat chow and water ad libitum, and were kept individually in metabolism cages.
Blood samples were collected at 1, 3, 6 and 24 hr from male rats and at 1 and 3 hr from female rats after dose administration by cardiac puncture into tubes containing EDTA as the anticoagulant and placing them on ice. Triplicate aliquots (50 μL) of whole blood were removed and plasma was immediately obtained from the remaining blood by centrifugation at 4° C. Whole brain samples were collected after saline perfusion at 1, 3, 6 and 24 hr post-dose from male rats and at 1 and 3 hr post-dose from female rats. Urine samples were collected on dry ice from male rats at intervals of 0-6 and 6-24 hr post-dose. Feces were collected from male rats at 0-24 hr post-dose at room temperature. The biological specimens and aliquots of the dose suspension were stored at approximately −70° C. until analysis.
Triplicate aliquots of diluted dose (20 μL), dose fractions (10 μL), and plasma (50 μL) and urine (100 μL) from individual rats were analyzed for radioactivity concentrations. Radioactivity determinations were made with a Tri-Carb Model 3100 TR liquid scintillation counter (LSC) (Perkin Elmer) using 5 mL of Ultima Gold as the scintillation fluid.
Brain and fecal samples from individual rats were weighed and homogenized in water at a volume-to-weight ratio of about 3:1 and 5:1, respectively, with a Polytron PT homogenizer at ice-cold temperature. Duplicate aliquots of blood (50 μL), brain homogenates (0.2 g) and fecal homogenates (0.2 g) were placed on Combusto-cones with Combusto-pads and allowed to dry overnight. Samples were combusted with a model 307 Tri-Carb Sample Oxidizer, equipped with an Oximate-80 Robotic Automatic Sampler (Perkin Elmer). The liberated ^14CO2 was trapped with Carbo-Sorb E carbon dioxide absorber, mixed with PermaFluor® E^+ liquid scintillation cocktail, and counted in a Tri-Carb Model 3100 TR/LL liquid scintillation counter (Perkin Elmer).
Plasma samples were pooled by equal volumes from three animals at each time point (1, 3, 6 and 24 hr for males; 1 and 3 hr for females). Aliquots of 2 mL of pooled plasma were mixed with 2 mL of acetonitrile, placed on ice for about 10 min, and then centrifuged at 4° C. The supernatant was transferred to a clean tube. The protein pellets were extracted two more times with 4 mL of acetonitrile. The supernatants from precipitation and extraction of each sample were pooled, mixed, and evaporated at 22° C. under nitrogen in a TurboVap LV evaporator (Caliper Life Sciences, Hopkinton, Mass.) to about 1.0 mL. The concentrated extract was centrifuged, the supernatant volume measured and the extraction efficiency was determined by analyzing duplicate 10 μL aliquots for radioactivity concentrations.

[1] = female rats, 1 hr, individual rats, 5 mg/kg
[2] = female rats, 1 hr, mean ± SD, 5 mg/kg
[3] = female rats, 3 hr, individual rats, 5 mg/kg
[4] = female rats, 3 hr, mean ± SD, 5 mg/kg
[5] = male rats, 1 hr, individual rats, 5 mg/kg
[6] = male rats, 1 hr, mean ± SD, 5 mg/kg
[7] = male rats, 3 hr, individual rats, 5 mg/kg
[8] = male rats, 3 hr, mean ± SD, 5 mg/kg
[9] = male rats, 6 hr, individual rats, 5 mg/kg
[10] = male rats, 6 hr, mean ± SD, 5 mg/kg
[11] = male rats, 24 hr, individual rats, 5 mg/kg
[12] = male rats, 24 hr, mean ± SD, 5 mg/kg

COc1cc(N2CCN(C3CCN(c4ccc(F)c5cccnc45)CC3)CC2)c2ncccc2c1 [[^14C]COMPOUND I, [piperazine-^14C(U)]-5-fluoro-8-(4-(4-(6-methoxyquinolin-8-yl)piperazin-1-yl)piperidin-1-yl)quinoline trisuccinate]
Concentration of Total Radioactivity in Plasma [1]: 1274 ng equivalents/mL and 854 ng equivalents/mL and 383 ng equivalents/mL | Concentration of Total Radioactivity in Whole Blood [1]: 815 ng equivalents/mL and 549 ng equivalents/mL and 536 ng equivalents/mL | Brain Radioactivity Concentrations (female rats, 1 hr, individual, 5 mg/kg): 149 ng equivalents/g and 121 ng equivalents/g and 128 ng equivalents/g | Concentration of Total Radioactivity in Whole Blood (female rats, 1 hr, mean ± SD): 633 ± 157 ng equivalents/mL | Brain Radioactivity Concentrations [2]: 133 ng equivalents/g and 133 ± 15 ng equivalents/g | Concentration of Total Radioactivity in Plasma [2]: 837 ng equivalents/mL and 837 ± 446 ng equivalents/mL | Concentration of Total Radioactivity in Plasma [3]: 504 ng equivalents/mL and 298 ng equivalents/mL and 436 ng equivalents/mL | Concentration of Total Radioactivity in Whole Blood [3]: 326 ng equivalents/mL and 206 ng equivalents/mL and 287 ng equivalents/mL | Brain Radioactivity Concentrations (female rats, 3 hr, individual, 5 mg/kg): 54 ng equivalents/g and 30 ng equivalents/g and 61 ng equivalents/g | Concentration of Total Radioactivity in Whole Blood (female rats, 3 hr, mean ± SD): 273 ± 61.2 ng equivalents/mL | Brain Radioactivity Concentrations [4]: 49 ng equivalents/g and 49 ± 16 ng equivalents/g | Concentration of Total Radioactivity in Plasma [4]: 412 ng equivalents/mL and 412 ± 105 ng equivalents/mL | dose excreted in urine (male rats, 0-24 hr urine): 3.6% | Concentration of Total Radioactivity in Plasma [5]: 366 ng equivalents/mL and 295 ng equivalents/mL and 887 ng equivalents/mL | Concentration of Total Radioactivity in Whole Blood [5]: 228 ng equivalents/mL and 169 ng equivalents/mL and 251 ng equivalents/mL | Brain Radioactivity Concentrations (male rats, 1 hr, individual, 5 mg/kg): 48 ng equivalents/g and 42 ng equivalents/g and 63 ng equivalents/g | Concentration of Total Radioactivity in Whole Blood (male rats, 1 hr, mean ± SD): 216 ± 42.3^a ng equivalents/mL | Brain Radioactivity Concentrations [6]: 51 ng equivalents/g and 51 ± 11^c ng equivalents/g | Concentration of Total Radioactivity in Plasma [6]: 516 ng equivalents/mL and 516 ± 323 ng equivalents/mL | Concentration of Total Radioactivity in Plasma [7]: 172 ng equivalents/mL and 256 ng equivalents/mL and 144 ng equivalents/mL | Concentration of Total Radioactivity in Whole Blood [7]: 115 ng equivalents/mL and 166 ng equivalents/mL and 98.6 ng equivalents/mL | Brain Radioactivity Concentrations (male rats, 3 hr, individual, 5 mg/kg): 22 ng equivalents/g and 31 ng equivalents/g and 23 ng equivalents/g | Concentration of Total Radioactivity in Whole Blood (male rats, 3 hr, mean ± SD): 127 ± 35.1^a ng equivalents/mL | Brain Radioactivity Concentrations [8]: 25 ng equivalents/g and 25 ± 4.9 ng equivalents/g | Concentration of Total Radioactivity in Plasma [8]: 191 ng equivalents/mL and 191 ± 58.3^a ng equivalents/mL | Concentration of Total Radioactivity in Plasma [9]: 112 ng equivalents/mL and 114 ng equivalents/mL and 163 ng equivalents/mL | Concentration of Total Radioactivity in Whole Blood [9]: 77.2 ng equivalents/mL and 75.5 ng equivalents/mL and 118 ng equivalents/mL | Brain Radioactivity Concentrations (male rats, 6 hr, individual, 5 mg/kg): 15 ng equivalents/g and 13 ng equivalents/g and 19 ng equivalents/g | Concentration of Total Radioactivity in Whole Blood (male rats, 6 hr, mean ± SD): 90.2 ± 24.1 ng equivalents/mL | Brain Radioactivity Concentrations [10]: 16 ng equivalents/g and 16 ± 3.2 ng equivalents/g | Concentration of Total Radioactivity in Plasma [10]: 130 ng equivalents/mL and 130 ± 28.9 ng equivalents/mL | Concentration of Total Radioactivity in Plasma [11]: 23.3 ng equivalents/mL and 24.2 ng equivalents/mL and 26.7 ng equivalents/mL | Concentration of Total Radioactivity in Whole Blood [11]: 22.8 ng equivalents/mL and 26.2 ng equivalents/mL and 28.0 ng equivalents/mL | Brain Radioactivity Concentrations (male rats, 24 hr, individual, 5 mg/kg): 7.1 ng equivalents/g and 5.3 ng equivalents/g and 6.1 ng equivalents/g | Concentration of Total Radioactivity in Whole Blood (male rats, 24 hr, mean ± SD): 25.7 ± 2.64 ng equivalents/mL | Brain Radioactivity Concentrations [12]: 6.2 ng equivalents/g and 6.2 ± 0.9 ng equivalents/g | Concentration of Total Radioactivity in Plasma [12]: 24.7 ng equivalents/mL and 24.7 ± 1.76 ng equivalents/mL | administered radioactivity recovered in feces (male rats, first 24 hr, average): 81.9%
